TGI data for 17 compounds are collected here from PubChem BioAssay (NCI).

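Cells were grown in 96-well plates and exposed to each compound for 48 hours at five concentrations; endpoints were interpolated linearly between bracketing concentrations, or set to the highest concentration if not reached. TGI is the concentration that stops growth completely.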

Test in all cases: NCI anticancer screen, dose series, 48 h
Assay [1] has as its system A549 NSCLC.
Assay [2] concerns SK-MEL-2 melanoma.
Assay [3] has as its system LOX IMVI melanoma.
Assay [4] deals with T-47D breast.
Assay [5] deals with NCI-H23 lung.
Assay [6] concerns HOP-92 NSCLC.
Assay [7] relates to SK-MEL-5 melanoma.
Assay [8] deals with MCF7 breast.
Assay [9] relates to BT-549 breast.
For assay [10], the system named is M14 melanoma.
For assay [11], the system named is UO-31 renal.
For assay [12], the system named is DU-145 prostate.
Assay [13] deals with NCI/ADR-RES ovarian.
In assay [14] the test system is TK-10 renal.
Assay [15] concerns UACC-62 melanoma.
Assay [16] has as its system EKVX NSCLC.
The test system of assay [17] is KM12 colon.

On to `C=C=C(CC1CCCCC1=O)S(=O)(=O)c1ccccc1` (stereo not drawn), for which the TGI in assay [1], in assay [2], in [3], in [4], in assay [5] and in [6] was over 10 µM in each case. In addition, the TGI in [7], in assay [8], in [9], in [10], in [11] and in assay [12] was over 10 µM throughout. Further, the TGI in assay [13], in assay [14], in assay [15] and in assay [16] was over 10 µM in each case.
Turning to `Cc1cc(S(=O)(=O)Nc2n[nH]c(Nc3ccc(Cl)cc3)n2)c(S)cc1Cl`, the TGI in assay [1], in [2], in assay [17], in assay [3], in [4] and in [5] was over 100 µM in each case. The TGI in assay [6], in assay [7], in assay [8], in assay [9], in assay [10] and in assay [11] was over 100 µM throughout. In addition, the TGI in [12], in assay [13], in assay [14], in assay [15] and in [16] was over 100 µM in each case.
Regarding `N=C1OC(CN2CCN(c3ccccc3)CC2)CN1C(=S)Nc1ccccc1` (stereo not drawn), the TGI in assay [1] is over 100 µM; in assay [2], over 100 µM; in [17] it was over 100 µM; in assay [3], 72.7 µM; in assay [4] it was over 100 µM; in assay [5], over 100 µM. The TGI in assay [6], in assay [7], in [8], in [9], in assay [10] and in [11] was over 100 µM each time. Also, the TGI in assay [12], in [13], in assay [14], in [15] and in assay [16] was over 100 µM in each case.
As for `CC(O)(Cc1ccccc1C#N)Cc1ccccc1C#N`, the TGI in assay [1], in assay [2], in assay [17], in assay [3], in assay [4] and in [6] was over 100 µM each time. Also, the TGI in assay [7], in assay [8], in assay [9], in assay [10], in assay [12] and in assay [13] was over 100 µM throughout. The TGI in [14], in [15] and in assay [16] was over 100 µM throughout.
With `COC(=O)/C(C#N)=C(\Nc1ccccc1)N1CCOCC1`, the TGI in assay [1], in assay [2], in assay [3], in assay [4], in assay [5] and in assay [6] was over 100 µM each time. In addition, the TGI in assay [7], in assay [8], in [9], in assay [10], in assay [11] and in [12] was over 100 µM throughout. In addition, the TGI in [13], in assay [14] and in [16] was over 100 µM each time.
In the case of `O=C(O)CCCC(=O)Nn1c(Cc2ccc(Cl)cc2)n[nH]c1=O`, the TGI in assay [1], in [2], in assay [17], in [3], in assay [4] and in [5] was over 100 µM throughout. Also, the TGI in assay [6], in assay [7], in assay [8], in assay [9], in assay [10] and in assay [11] was over 100 µM each time. The TGI in assay [12], in assay [13], in assay [14], in [15] and in assay [16] was over 100 µM each time.
For the compound `O=c1[nH]c2ccccc2c(=O)n1/N=C/c1ccc(O)cc1`, the TGI in assay [1], in assay [2], in [17], in assay [3], in [4] and in [5] was over 100 µM in each case. In addition, the TGI in [6] was 90.4 µM; in assay [7], over 100 µM; in assay [8], over 100 µM; in [9], over 100 µM; in [10], over 100 µM; in [11], over 100 µM. Moreover, the TGI in assay [12], in assay [13], in [14], in assay [15] and in assay [16] was over 100 µM in each case.
Take `CCOC(=O)c1c[nH]c2c(Sc3ccccc3)nccc2c1=O`: the TGI in assay [1], in assay [2], in assay [17], in assay [3], in assay [4] and in assay [5] was over 100 µM each time. The TGI in assay [6], in assay [7], in [8], in assay [9], in assay [10] and in [11] was over 100 µM throughout. In addition, the TGI in assay [12], in [13], in assay [14], in assay [15] and in assay [16] was over 100 µM each time.
Regarding `Cc1cn([C@@H]2C[C@@H]2CO)c(=O)[nH]c1=O`, the TGI in assay [1], in assay [2], in assay [17], in assay [3], in assay [4] and in [5] was over 100 µM each time. The TGI in [6], in assay [7], in assay [8], in [9], in assay [10] and in [11] was over 100 µM throughout. The TGI in assay [12], in assay [13], in assay [14], in assay [15] and in assay [16] was over 100 µM throughout.
As for `OC(c1ccc(F)cc1)C(F)(F)c1nc2ccccc2o1` (stereo not drawn), the TGI in assay [2], in assay [17], in assay [3], in [4], in assay [5] and in assay [6] was over 100 µM throughout. Further, the TGI in assay [7], in [8], in [9], in [10], in assay [11] and in assay [12] was over 100 µM throughout. For the same compound, the TGI in assay [13], in assay [14], in assay [15] and in [16] was over 100 µM each time.
For the compound `CN(C)c1ccc(C=Nc2ccc(-c3nc4ccccc4[nH]3)cc2)cc1`, the TGI in [1], in assay [2], in assay [17], in [3], in assay [4] and in assay [5] was over 100 µM each time. For the same compound, the TGI in assay [6] was over 100 µM; in [7], over 100 µM; in assay [8] it was over 100 µM; in assay [9], 88.8 µM; in [10] it was over 100 µM; in assay [11] it was over 100 µM. Besides, the TGI in assay [12] is over 100 µM; in [13] it was 27.7 µM; in [14] it was over 100 µM; in assay [16], over 100 µM.
For the compound `O=C1NC(N2CCOCC2)=N/C1=C\c1ccc(Cl)cc1`, the TGI in assay [1], in assay [2], in assay [17], in assay [3], in [4] and in [5] was over 100 µM throughout. Also, the TGI in [6], in assay [8], in assay [9], in assay [10], in assay [11] and in assay [12] was over 100 µM each time. Moreover, the TGI in assay [13], in assay [14], in assay [15] and in [16] was over 100 µM each time.
For the compound `COc1ccccc1NC(=S)N/N=C/c1c(C)n(C)n(-c2ccccc2)c1=O`, the TGI in assay [2], in [17], in assay [3], in assay [4], in [5] and in [6] was over 100 µM in each case. Also, the TGI in [7], in assay [8], in assay [9], in assay [10], in assay [11] and in assay [12] was over 100 µM each time. Also, the TGI in assay [13] was 63.9 µM; in assay [14], over 100 µM; in assay [15], over 100 µM; in assay [16] it was over 100 µM.
Consider `O=C1/C(=C\Oc2ccc(F)cc2)N2CCC1CC2`, for which the TGI in assay [1], in assay [2], in [3], in assay [4], in assay [5] and in [6] was over 100 µM throughout. The TGI is over 100 µM in assay [7]; over 100 µM in [8]; over 100 µM in assay [9]; over 100 µM in assay [10]; over 100 µM in [11]; 36.7 µM in assay [12]. Further, the TGI in assay [13], in assay [14], in [15] and in assay [16] was over 100 µM in each case.
For `O=c1[nH]c(=O)n(COCc2ccccc2)c2ccsc12`, the TGI in [1], in assay [2], in [17], in assay [3], in assay [4] and in [6] was over 100 µM in each case. Further, the TGI in [7], in assay [8], in assay [9], in assay [10], in [12] and in assay [13] was over 100 µM throughout. Moreover, the TGI in assay [14] and in [16] was over 100 µM in each case.
Consider `Oc1ccc(O)c(CNc2ccc(C(O)C(F)(F)F)cc2)c1` (stereo not drawn), for which the TGI in assay [1] was over 100 µM; in assay [2] it was 88 µM; in assay [3] it was 32.2 µM; in [4], 61.5 µM; in [5] it was 56.9 µM; in assay [6], 27.7 µM. In addition, the TGI in [7] stood at 76.2 µM; in assay [8], 69.2 µM; in assay [9] it was 28.2 µM; in assay [10], 35.5 µM; in assay [11] it was 21.9 µM; in assay [12], 28.5 µM. Moreover, the TGI is over 100 µM in assay [13], 33.1 µM in assay [14], 35.8 µM in assay [15] and 27.8 µM in [16].
Take `Cc1nc(N)c(N2CCN(C(=O)O)CC2)c(=O)[nH]1`: the TGI in [1], in assay [2], in assay [17], in assay [3], in [4] and in assay [5] was over 100 µM in each case. For the same compound, the TGI in [6], in assay [8], in [9], in [10], in assay [11] and in assay [12] was over 100 µM in each case. The TGI in assay [13], in [14] and in assay [16] was over 100 µM in each case.
